Test results reported in PMC8190080, “Tanshinones induce tumor cell apoptosis via directly targeting FHIT” (Scientific Reports, 2021).

Assays:
[1] = molecular target: FHIT truncation TR1 (Homo sapiens, UniProt P49789); test: Cellular MST assay, GFP tagged FHIT truncation TR1; format: binding
Procedure: Ten million 293 cells overexpressing GFP-tagged FHIT or free GFP were lysed in 0.5 mL M-PER mammalian protein extraction reagent (Thermo Fisher Scientific). Cell lysates were diluted in PBS buffer to a final concentration at which the fluorescent signals of the GFP proteins were suitable for the detection of the Monolith NT.115 instrument (NanoTemper Technologies). A single point screening assay was developed against GFP-FHIT protein to find potential binding molecules from compound libraries (L1021,APExBIO). For binding affinity detection, a 10µL protein sample was mixed with 10µL ligand at various concentrations as indicated. And the purified proteins were labeled by Red- NHS kit in accordance with the manufacturer’s protocol (MO-L011, NanoTemper Technologies). Then the mixture solutions were loaded into NT.115 standard coated capillaries or premium coated capillaries (NanoTemper Technologies), and the MST measurements were performed at 25 °C. The fluorescence signal during the thermophoresis was monitored and the change in fluorescence was analyzed by software. The Kd was calculated by fitting a standard binding curve to the series diluted ligands. And data were analyzed by GraphPad Prism 7.0.

[2] = molecular target: T1, DCPS (Homo sapiens, UniProt Q96C86); test: MST assay, purified DCPS; format: binding
T1 construct: 6xHis (N); made in house; host or cells: E. coli BL21(DE3)
T1 sequence (Q96C86 1-337): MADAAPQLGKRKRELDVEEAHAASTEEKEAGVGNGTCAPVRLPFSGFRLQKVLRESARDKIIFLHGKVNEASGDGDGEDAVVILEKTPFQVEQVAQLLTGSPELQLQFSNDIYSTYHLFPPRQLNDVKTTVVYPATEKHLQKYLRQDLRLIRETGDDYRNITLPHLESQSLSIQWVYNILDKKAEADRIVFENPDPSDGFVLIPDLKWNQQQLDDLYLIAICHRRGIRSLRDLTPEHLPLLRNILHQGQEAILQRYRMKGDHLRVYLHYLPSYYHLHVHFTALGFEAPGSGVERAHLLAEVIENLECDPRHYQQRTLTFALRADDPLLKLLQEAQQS

[3] = molecular target: T2, GALT (Homo sapiens, UniProt P07902); test: MST assay, purified GALT; format: binding
T2 construct: 6xHis (N); made in house; host or cells: E. coli BL21(DE3)
T2 sequence (P07902 whole entry): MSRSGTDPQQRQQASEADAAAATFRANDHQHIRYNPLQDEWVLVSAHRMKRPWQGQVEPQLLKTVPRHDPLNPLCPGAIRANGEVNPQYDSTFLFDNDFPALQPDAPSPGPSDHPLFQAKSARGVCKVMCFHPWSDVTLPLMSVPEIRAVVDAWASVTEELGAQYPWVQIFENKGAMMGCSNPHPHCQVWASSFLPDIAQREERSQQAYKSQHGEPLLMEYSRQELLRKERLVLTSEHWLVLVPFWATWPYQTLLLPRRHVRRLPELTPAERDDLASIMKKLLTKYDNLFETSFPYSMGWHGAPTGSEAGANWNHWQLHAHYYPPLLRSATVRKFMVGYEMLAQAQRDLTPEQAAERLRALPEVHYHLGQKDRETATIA

[4] = molecular target: T3, FHIT (Homo sapiens, UniProt P49789); test: FHIT hydrolase activity detection assay (Ap3A, ADP-Glo); format: biochemical; settings: 5 nM FHIT, 500 nM Ap3A, ADP production by ADP-Glo
T3 construct: GST (N, cleaved yes); made in house; host or cells: E. coli BL21 (DE3)
T3 sequence (P49789 whole entry): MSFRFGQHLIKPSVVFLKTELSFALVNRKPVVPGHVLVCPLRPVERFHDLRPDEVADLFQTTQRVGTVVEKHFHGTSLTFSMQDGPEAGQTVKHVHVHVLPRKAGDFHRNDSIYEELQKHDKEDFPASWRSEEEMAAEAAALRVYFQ
Procedure: 5 nM FHIT protein was mixed with series diluted compounds as indicated in assay buffer (20 mM Tris–HCl, 2 mM DTT, 5 mM MgCl2, pH7.5) in a final DMSO concentration of 1% in a total volume of 20 μL. The mixtures were incubated for 30 min at 25 °C, then 500 nM Ap3A was added. After incubation at 25 °C for 5 min, the production of ADP in the reaction system was detected by ADP-Glo reagent (V6930, Promega) according to the manufacturer’s protocol in 384-well. Luminescence was read by spark (TECAN), an integration time of 1 s per well. And the data were analyzed by GraphPad Prism 7.0.

[5] = test system: HCT116 cells; test: CCK-8 assay for cell inhibitory rate; format: cell-based, human; settings: WT HCT116 cells, concentration as high as 100 µM
Procedure: The CCK-8 (Cell-Counting Kit-8) assay was used to detect the cells’inhibitory rate following the manufacturer’s protocol (APExBIO). Cells were seeded into 96-well plates at the density of 4 × 10^3(cells/well) overnight at 37 °C. After that, the culture medium was removed and the cells were treated with different concentrations of TSA (0, 1, 2, 5, 10 µM) or STS (0, 10, 25, 50, 100 µM) for 24 h, 48 h, 72 h respectively. Then 10 μL CCK-8 reagent was added into each well and incubated for another 2 h, OD450 was measured by a microplate reader (spark, TECAN).

[6] = test system: HCT116 cells; test: Colony formation assay; format: cell-based, human; settings: up to 10 µM, 14 days
Procedure: ENPP1 hydrolase activity detection assay
ENPP1 protein (4ng/µl) was mixed with series diluted compounds as indicated in assay buffer (50mM Tris-HCl, 2mM CaCl2, 2mM MgCl2, pH9.0) in a final DMSO concentration of 1% in a total volume of 20μL. The mixtures were incubated for 30min at 25°C, then 4µM Ap3A was added. After incubation at 25°C for 10min, ENPP1 should be inactivated at 85°C for 5min.
Then the production of ADP in the reaction system was detected by ADP-Glo reagent (V6930, Promega) according to the manufacturer’s protocol in 384-well. Luminescence was read by spark (TECAN), an integration time of 1 second per well. And the data were analyzed by […]
Fluorescent thin layer enzyme assay for ENPP1
Small molecules, when indicated at series concentrations, were mixed with 2.5µM the fluorescent substrate ApppBODIPY. Then, 10nM purified ENPP1 protein was added to the reaction system at 25°C containing 50mM Tris-HCl pH9.0, 2mM CaCl2, 2mM MgCl2. Reaction samples (0.6µL) were spotted on silica TLC plates (Merck) at 60–120s intervals. Plates were air-dried and developed in 2-propanol:NH4OH:1,4-dioxane: H2O (50:35:8:7) as reported before. Developed plates were imaged by fluorescein blot (ChemiDoc, Bio-rad).
Colony formation assay was performed as described before. Briefly, ~200/well single cells were planted into 6-well plate. […]

Chain of FHIT truncation TR1 (P49789 2-109): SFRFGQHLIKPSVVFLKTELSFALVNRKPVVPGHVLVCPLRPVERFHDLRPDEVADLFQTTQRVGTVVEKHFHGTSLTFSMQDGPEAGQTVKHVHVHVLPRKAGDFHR

- Kd [1]: 75.1 µM
- Kd [2]: 9.31 ± 0.4 µM
- Kd [3]: 12.9 ± 0.54 µM
- IC50 [4]: 0.34 ± 0.09 µM
SMILES: Cc1c(S(=O)(=O)O)oc2c1C(=O)C(=O)c1c-2ccc2c1CCCC2(C)C [STS, Sodium tanshinone IIA sulfonate]
- cytotoxicity (CCK8) [5]: no cytotoxicity
- colony formation of HCT116 cells [6]: no effect was detected
